Measured values reported in patent US20120196899A1, “METHODS AND PRODUCTS FOR TREATING INFLAMMATION” (Rock Creek Pharmaceuticals, Inc., priority 2010, published 2012).
“And” between values parts separate entries of the source, which are not always exact repeats. Equal values may be shown once. Read-outs that look alike come from different tables or passages of the source.

Assay: Plasma pharmacokinetics after oral multi-dose anatabine polacrilex
Format: in vivo, Sprague-Dawley rats
Details: for Anatabine Concentration in rat plasma: dose 2 mg/kg; for Avg. Conc. of anatabine in plasma: dose group 2, female; for concentration at 30 min / concentration at 60 min / concentration at 235 min / concentration at 270 min / concentration at 300 min / concentration at 475 min / concentration at 540 min / concentration at 600 min / concentration at 720 min / Tmax / half-life: Sprague-Dawley, rat, plasma; for concentration at 30 min / concentration at 60 min / concentration at 235 min / concentration at 270 min / concentration at 300 min / concentration at 475 min / concentration at 540 min / concentration at 600 min / concentration at 720 min: oral; for Tmax / half-life: po; for half-life: mean
Description: This study consisted of two groups of 8 animals each, 4 males and 4 females.
Two formulations were prepared; one for each of the two treatment groups. The test compound was formulated for each treatment group just prior to the first dose administration and constantly stirred until dosing was completed (Table 37). Four aliquots of each dose level formulation were collected and stored at −80° C.
The animals were weighed prior to dosing and received three doses p.o. of test compound at a volume of 5 mL/kg. Blood was collected via the venus plexus (retro-orbital) into tubes containing (K2) EDTA. No more than 0.5 mL was collected per time point.
Plasma was separated as per package instructions for MICROTAINER® brand collection tubes (3 minutes, 2000×g). Plasma was decanted into microfuge tubes and stored at −80° C. Remaining test compound was placed at −80° C.
Sample preparation. Plasma samples were treated with three volumes of methanol containing internal standard at 1 μM (R,S)-Antabine-2,4,5,6-d4), incubated 10 min at 4° C., and centrifuged. The amount of the test agent in the supernatant was determined by LC/MS/MS.
Analysis. Samples were analyzed by LC/MS/MS using an Agilent 6410 mass spectrometer coupled with an Agilent 1200 high pressure liquid chromatography (HPLC) and a CTC PAL chilled autosampler, all controlled by MassHunter software (Agilent). After separation on a Hydrophilic interaction liquid chromatography (HILIC) HPLC column (Sepax) using an acetonitrile-ammonium acetate/acetic acid gradient system, peaks were analyzed by mass spectrometry (MS) using ESI ionization in multiple reaction monitoring (MRM) mode. MassHunter software was used to calculate the concentration of the test compounds in samples from the peak area using the appropriate calibration curves.
Calibration samples. Calibration curves were determined in rat plasma. Calibration samples were prepared by diluting a 50× stock solution of the test compound in PBS with blank matrix to the appropriate concentration and these samples were prepared as described above in the sample preparation.
Data Analysis. Descriptive statistics were calculated for all pharmacokinetic parameters. Elimination half-lives (t1/2) were calculated by linear regression of logarithmically transformed plasma concentration data for each period between doses and following the final dose.
Total areas under the plasma concentration curves (AUC) and under the first moment curves (AUMC) were calculated using linear trapezoidal summation across all concentration time points as well as for intervals between each dose administration and following the final dose. […] Mean absorption times (MAT) were calculated according to the following relation: […]
where MRT represents the mean residence time. This was calculated from the mean residence times.
The statistical comparison of parameters between male and female animals was made using a two-tailed, unpaired, t-test with a 95 percent confidence interval. Repeated-measures analysis of variance (ANOVA) was used for multiple comparisons of Cp, max involving successive determinations on the same group of animals.

[1] = females, 6.0 mg/kg BW group, anatabine polacrilex p.o.

C1=CCC(c2cccnc2)NC1 (racemic) [Anatabine, 1,2,3,6-tetrahydro-[2,3′]bipyridinyl]
Anatabine Concentration in rat plasma (female, 270 min, individual animals 4A-4D): 324 ng/mL and 350 ng/mL
Anatabine Concentration in rat plasma (female, 300 min, individual animals 4A-4D): 216 ng/mL and 97 ng/mL and 191 ng/mL and 414 ng/mL
Anatabine Concentration in rat plasma (female, 475 min, individual animals 4A-4D): 219 ng/mL and 178 ng/mL and 179 ng/mL
Anatabine Concentration in rat plasma (female, 540 min, individual animals 4A-4D): 231 ng/mL and 314 ng/mL and 369 ng/mL and 474 ng/mL
Anatabine Concentration in rat plasma (female, 600 min, individual animals 4A-4D): 197 ng/mL and 207 ng/mL and 480 ng/mL and 288 ng/mL
Anatabine Concentration in rat plasma (female, 720 min, individual animals 4A-4D): 165 ng/mL and 217 ng/mL
Anatabine Concentration in rat plasma (male, 235 min, individual animals 3A-3D): 46 ng/mL and 63 ng/mL and 105 ng/mL
Anatabine Concentration in rat plasma (male, 270 min, individual animals 3A-3D): 364 ng/mL and 309 ng/mL
Anatabine Concentration in rat plasma (male, 300 min, individual animals 3A-3D): 232 ng/mL and 202 ng/mL
Anatabine Concentration in rat plasma (male, 475 min, individual animals 3A-3D): 97 ng/mL
Anatabine Concentration in rat plasma (male, 540 min, individual animals 3A-3D): 290 ng/mL and 173 ng/mL
Anatabine Concentration in rat plasma (male, 600 min, individual animals 3A-3D): 173 ng/mL and 130 ng/mL and 150 ng/mL
Anatabine Concentration in rat plasma (male, 720 min, individual animals 3A-3D): 401 ng/mL and 137 ng/mL and 71 ng/mL
Avg. Conc. of anatabine in plasma (30 min): 160 ng/mL
Avg. Conc. of anatabine in plasma (60 min): 129 ng/mL
Avg. Conc. of anatabine in plasma (235 min): 44 ng/mL
Avg. Conc. of anatabine in plasma (270 min): 316 ng/mL
Avg. Conc. of anatabine in plasma (300 min): 234 ng/mL
Avg. Conc. of anatabine in plasma (540 min): 386 ng/mL
Avg. Conc. of anatabine in plasma (600 min): 325 ng/mL
Avg. Conc. of anatabine in plasma (720 min): 208 ng/mL
concentration at 30 min (female, 0.2 mg/kg BW, Avg. Conc. of anatabine in plasma, dose group 0.2, female, 30 min): 37 ng/mL
concentration at 60 min (female, 0.2 mg/kg BW, Avg. Conc. of anatabine in plasma, dose group 0.2, female, 60 min): 35 ng/mL
concentration at 235 min (female, 0.2 mg/kg BW, Avg. Conc. of anatabine in plasma, dose group 0.2, female, 235 min): 12 ng/mL
concentration at 270 min (female, 0.2 mg/kg BW, Avg. Conc. of anatabine in plasma, dose group 0.2, female, 270 min): 26 ng/mL
concentration at 300 min (female, 0.2 mg/kg BW, Avg. Conc. of anatabine in plasma, dose group 0.2, female, 300 min): 34 ng/mL
concentration at 475 min (female, 0.2 mg/kg BW, Avg. Conc. of anatabine in plasma, dose group 0.2, female, 475 min): 8 ng/mL
concentration at 540 min (female, 0.2 mg/kg BW, Avg. Conc. of anatabine in plasma, dose group 0.2, female, 540 min): 34 ng/mL
concentration at 600 min (female, 0.2 mg/kg BW, Avg. Conc. of anatabine in plasma, dose group 0.2, female, 600 min): 28 ng/mL
concentration at 720 min (female, 0.2 mg/kg BW, Avg. Conc. of anatabine in plasma, dose group 0.2, female, 720 min): 12 ng/mL
concentration at 30 min (female, 0.2 mg/kg, Anatabine Concentration in rat plasma, 30 min, individual animals 2A-2D): 34 ng/mL
concentration at 60 min (female, 0.2 mg/kg, Anatabine Concentration in rat plasma, 60 min, individual animals 2A-2D): 29 ng/mL
concentration at 475 min (female, 0.2 mg/kg, Anatabine Concentration in rat plasma, 475 min, individual animals 2A-2D): 7 ng/mL
concentration at 540 min (female, 0.2 mg/kg, Anatabine Concentration in rat plasma, 540 min, individual animals 2A-2D): 24 ng/mL
concentration at 270 min (female, 2 mg/kg, Anatabine Concentration in rat plasma, 270 min, individual animals 4A-4D): 237 ng/mL
concentration at 475 min (female, 2 mg/kg, Anatabine Concentration in rat plasma, 475 min, individual animals 4A-4D): 144 ng/mL
concentration at 720 min (female, 2 mg/kg, Anatabine Concentration in rat plasma, 720 min, individual animals 4A-4D): 186 ng/mL
Tmax (female, 0.6 mg/kg, female rats, after dose 1, mean, read-out: Tmax(1)): 0.63 h
Tmax (female, 0.6 mg/kg, female rats, after dose 2, mean, read-out: Tmax(2)): 0.88 h
Tmax (female, 0.6 mg/kg, female rats, after dose 3, mean, read-out: Tmax(3)): 1.25 h
half-life (female, 0.6 mg/kg, female rats, after first dose, read-out: t1/2,0→4 (converted)): 2.06 h
half-life (female, 0.6 mg/kg, female rats, read-out: t1/2, terminal (converted)): 1.8 h
Tmax (female, 6 mg/kg, female rats, after dose 1, mean, read-out: Tmax(1)): 0.5 h
Tmax (female, 6 mg/kg, female rats, after dose 2, mean, read-out: Tmax(2)): 0.63 h
Tmax (female, 6 mg/kg, female rats, after dose 3, mean, read-out: Tmax(3)): 1.25 h
half-life (female, 6 mg/kg, female rats, after first dose, read-out: t1/2,0→4 (converted)): 1.82 h
half-life (female, 6 mg/kg, female rats, read-out: t1/2, terminal (converted)): 3.99 h
half-life (female, both treatment groups combined, female rats, read-out: t1/2,0→4 (converted)): 1.94 h
Cp, max, initial value (increase from) [1]: 259.8 ± 35.4 ng/mL
Cp, max, later value (increase to) [1]: 374.8 ± 122.9 ng/mL
Cp, min, first minimum [1]: 51.5 ± 26.0 ng/mL
Cp, min(2), second minimum (females, 6.0 mg/kg BW group, anatabine polacrilex p.o., 6 mg/kg): 180 ± 31 ng/mL and 180.0 ± 30.7 ng/mL
concentration at 300 min (male, 0.2 mg/kg BW, Avg. Conc. of anatabine in plasma, dose group 0.2, male, 300 min): 26 ng/mL
concentration at 475 min (male, 0.2 mg/kg BW, Avg. Conc. of anatabine in plasma, dose group 0.2, male, 475 min): 18 ng/mL
concentration at 540 min (male, 0.2 mg/kg BW, Avg. Conc. of anatabine in plasma, dose group 0.2, male, 540 min): 38 ng/mL
concentration at 600 min (male, 0.2 mg/kg BW, Avg. Conc. of anatabine in plasma, dose group 0.2, male, 600 min): 29 ng/mL
concentration at 720 min (male, 0.2 mg/kg BW, Avg. Conc. of anatabine in plasma, dose group 0.2, male, 720 min): 12 ng/mL
concentration at 30 min (male, 0.2 mg/kg, Anatabine Concentration in rat plasma, 30 min, individual animals 1A-1D): 29 ng/mL
concentration at 60 min (male, 0.2 mg/kg, Anatabine Concentration in rat plasma, 60 min, individual animals 1A-1D): 32 ng/mL
concentration at 235 min (male, 0.2 mg/kg, Anatabine Concentration in rat plasma, 235 min, individual animals 1A-1D): 11 ng/mL
concentration at 270 min (male, 0.2 mg/kg, Anatabine Concentration in rat plasma, 270 min, individual animals 1A-1D): 35 ng/mL
concentration at 300 min (male, 0.2 mg/kg, Anatabine Concentration in rat plasma, 300 min, individual animals 1A-1D): 22 ng/mL
concentration at 30 min (male, 0.2 mg/kg, Avg. Conc. of anatabine in plasma, dose group 0.2, male, 30 min): 33 ng/mL
concentration at 60 min (male, 0.2 mg/kg, Avg. Conc. of anatabine in plasma, dose group 0.2, male, 60 min): 30 ng/mL
concentration at 235 min (male, 0.2 mg/kg, Avg. Conc. of anatabine in plasma, dose group 0.2, male, 235 min): 11 ng/mL
concentration at 270 min (male, 0.2 mg/kg, Avg. Conc. of anatabine in plasma, dose group 0.2, male, 270 min): 26 ng/mL
concentration at 30 min (male, 2 mg/kg BW, Avg. Conc. of anatabine in plasma, dose group 2, male, 30 min): 243 ng/mL
concentration at 235 min (male, 2 mg/kg BW, Avg. Conc. of anatabine in plasma, dose group 2, male, 235 min): 72 ng/mL
concentration at 270 min (male, 2 mg/kg BW, Avg. Conc. of anatabine in plasma, dose group 2, male, 270 min): 303 ng/mL
concentration at 300 min (male, 2 mg/kg BW, Avg. Conc. of anatabine in plasma, dose group 2, male, 300 min): 183 ng/mL
concentration at 475 min (male, 2 mg/kg BW, Avg. Conc. of anatabine in plasma, dose group 2, male, 475 min): 97 ng/mL
concentration at 540 min (male, 2 mg/kg BW, Avg. Conc. of anatabine in plasma, dose group 2, male, 540 min): 226 ng/mL
concentration at 600 min (male, 2 mg/kg BW, Avg. Conc. of anatabine in plasma, dose group 2, male, 600 min): 151 ng/mL
concentration at 720 min (male, 2 mg/kg BW, Avg. Conc. of anatabine in plasma, dose group 2, male, 720 min): 203 ng/mL
concentration at 475 min (male, 2 mg/kg, Anatabine Concentration in rat plasma, 475 min, individual animals 3A-3D): 79 ng/mL
concentration at 540 min (male, 2 mg/kg, Anatabine Concentration in rat plasma, 540 min, individual animals 3A-3D): 214 ng/mL
Tmax (male, 0.6 mg/kg, male rats, after dose 1, mean, read-out: Tmax(1)): 0.75 h
Tmax (male, 0.6 mg/kg, male rats, after dose 2, mean, read-out: Tmax(2)): 0.63 h
Tmax (male, 0.6 mg/kg, male rats, after dose 3, mean, read-out: Tmax(3)): 1 h
half-life (male, 0.6 mg/kg, male rats, after first dose, read-out: t1/2,0→4 (converted)): 2.05 h
half-life (male, 0.6 mg/kg, male rats, read-out: t1/2, terminal (converted)): 1.78 h
Tmax (male, 6 mg/kg, male rats, after dose 1, mean, read-out: Tmax(1)): 0.63 h
Tmax (male, 6 mg/kg, male rats, after dose 2, mean, read-out: Tmax(2)): 0.63 h
Tmax (male, 6 mg/kg, male rats, after dose 3, mean, read-out: Tmax(3)): 2 h
half-life (male, 6 mg/kg, male rats, after first dose, read-out: t1/2,0→4 (converted)): 1.76 h
half-life (male, 6 mg/kg, male rats, read-out: t1/2, terminal (converted)): 5.07 h
half-life (male, both treatment groups combined, male rats, read-out: t1/2,0→4 (converted)): 1.92 h
